Organism: Rattus norvegicus
Experiment: DrugMatrix - Regimen: Daily Repeat
Type: toxicity, organism-based, Sprague-Dawley
Set-up: regimen Daily Repeat, gender Male, age 6-8 weeks
Conditions: in vivo, po, route oral GAVAGE, […]; for ABSOLUTE BASOPHIL / ABSOLUTE EOSINOPHIL / ABSOLUTE LYMPHOCYTE / ABSOLUTE MONOCYTE / ABSOLUTE SEGMENTED NEUTROPHIL / BASOPHIL / EOSINOPHIL / ERYTHROCYTE COUNT / HEMATOCRIT / HEMOGLOBIN / LEUKOCYTE COUNT / LYMPHOCYTE / MEAN CORPUSCULAR HEMOGLOBIN / MEAN CORPUSCULAR HEMOGLOBIN CONCENTRATION / MEAN CORPUSCULAR VOLUME / MONOCYTE / NEUTROPHIL / NUCLEATED RED BLOOD CELLS / PLATELET COUNT: tissue Blood; for ALANINE AMINOTRANSFERASE / ALBUMIN / ALKALINE PHOSPHATASE / ASPARTATE AMINOTRANSFERASE / BLOOD UREA NITROGEN / CARBON DIOXIDE / CHLORIDE / CHOLESTEROL / CREATINE PHOSPHOKINASE / CREATININE / GLUCOSE / LACTATE DEHYDROGENASE / LIPASE / PHOSPHORUS / POTASSIUM / SODIUM / TOTAL BILIRUBIN / TOTAL PROTEIN / URIC ACID: tissue Plasma
[1] = 0 mg/kg, 72 h, dose level Control, time 3 day
[2] = 0 mg/kg, 120 h, dose level Control, time 5 day
[3] = 10 mg/kg, 72 h, dose level Low, time 3 day
[4] = 10 mg/kg, 120 h, dose level Low, time 5 day

OC(Cn1cncn1)(Cn1cncn1)c1ccc(F)cc1F [FLUCONAZOLE]
ABSOLUTE BASOPHIL [1]: 0 CELLS/uL
ABSOLUTE EOSINOPHIL [1]: 104.17 CELLS/uL
ABSOLUTE LYMPHOCYTE [1]: 14547 CELLS/uL
ABSOLUTE MONOCYTE [1]: 292 CELLS/uL
ABSOLUTE SEGMENTED NEUTROPHIL [1]: 1640.17 CELLS/uL
BASOPHIL [1]: 0%
EOSINOPHIL [1]: 0.67%
ERYTHROCYTE COUNT [1]: 5.35 x10E6/uL
HEMATOCRIT [1]: 33.67%
HEMOGLOBIN [1]: 13.38 G/DL
LEUKOCYTE COUNT [1]: 16.58 x10E3/uL
LYMPHOCYTE [1]: 87.5%
MEAN CORPUSCULAR HEMOGLOBIN [1]: 25.05 pg
MEAN CORPUSCULAR HEMOGLOBIN CONCENTRATION [1]: 39.78 G/DL
MEAN CORPUSCULAR VOLUME [1]: 62.97 fL
MONOCYTE [1]: 1.83%
NEUTROPHIL [1]: 10%
NUCLEATED RED BLOOD CELLS [1]: 0 /100WBC
PLATELET COUNT [1]: 1274.5 x10E3/uL
ALANINE AMINOTRANSFERASE [1]: 76.83 u/L
ALBUMIN [1]: 3.97 G/DL
ALKALINE PHOSPHATASE [1]: 347 u/L
ASPARTATE AMINOTRANSFERASE [1]: 97.17 u/L
BLOOD UREA NITROGEN [1]: 14.33 mg/dL
CARBON DIOXIDE [1]: 25.5 mmol/L
CHLORIDE [1]: 100.33 MEQ/L
CHOLESTEROL [1]: 68.67 mg/dL
CREATINE PHOSPHOKINASE [1]: 659.17 u/L
CREATININE [1]: 0.32 mg/dL
GLUCOSE [1]: 160.67 mg/dL
LACTATE DEHYDROGENASE [1]: 271.5 u/L
LIPASE [1]: 11.67 u/L
PHOSPHORUS [1]: 10.65 mg/dL
POTASSIUM [1]: 5.95 MEQ/L
SODIUM [1]: 139.65 MEQ/L
TOTAL BILIRUBIN [1]: 0.2 mg/dL
TOTAL PROTEIN [1]: 5.72 G/DL
URIC ACID [1]: 1.37 mg/dL
ABSOLUTE BASOPHIL [2]: 0 CELLS/uL
ABSOLUTE EOSINOPHIL [2]: 331.5 CELLS/uL
ABSOLUTE LYMPHOCYTE [2]: 15021.67 CELLS/uL
ABSOLUTE MONOCYTE [2]: 376.5 CELLS/uL
ABSOLUTE SEGMENTED NEUTROPHIL [2]: 3070.33 CELLS/uL
BASOPHIL [2]: 0%
EOSINOPHIL [2]: 1.83%
ERYTHROCYTE COUNT [2]: 5.24 x10E6/uL
HEMATOCRIT [2]: 33.22%
HEMOGLOBIN [2]: 13.2 G/DL
LEUKOCYTE COUNT [2]: 18.8 x10E3/uL
LYMPHOCYTE [2]: 79.67%
MEAN CORPUSCULAR HEMOGLOBIN [2]: 25.17 pg
MEAN CORPUSCULAR HEMOGLOBIN CONCENTRATION [2]: 39.73 G/DL
MEAN CORPUSCULAR VOLUME [2]: 63.38 fL
MONOCYTE [2]: 2%
NEUTROPHIL [2]: 16.5%
NUCLEATED RED BLOOD CELLS [2]: 0 /100WBC
PLATELET COUNT [2]: 1142.67 x10E3/uL
ALANINE AMINOTRANSFERASE [2]: 52.5 u/L
ALBUMIN [2]: 3.9 G/DL
ALKALINE PHOSPHATASE [2]: 284.5 u/L
ASPARTATE AMINOTRANSFERASE [2]: 81.33 u/L
BLOOD UREA NITROGEN [2]: 16 mg/dL
CARBON DIOXIDE [2]: 25.33 mmol/L
CHLORIDE [2]: 99.5 MEQ/L
CHOLESTEROL [2]: 74.83 mg/dL
CREATINE PHOSPHOKINASE [2]: 448.33 u/L
CREATININE [2]: 0.37 mg/dL
GLUCOSE [2]: 164.17 mg/dL
LACTATE DEHYDROGENASE [2]: 290.67 u/L
LIPASE [2]: 6.83 u/L
PHOSPHORUS [2]: 11.5 mg/dL
POTASSIUM [2]: 6.28 MEQ/L
SODIUM [2]: 139.5 MEQ/L
TOTAL BILIRUBIN [2]: 0.13 mg/dL
TOTAL PROTEIN [2]: 5.55 G/DL
URIC ACID [2]: 1.12 mg/dL
ABSOLUTE BASOPHIL [3]: 0 CELLS/uL
ABSOLUTE EOSINOPHIL [3]: 105 CELLS/uL
ABSOLUTE LYMPHOCYTE [3]: 3531.33 CELLS/uL
ABSOLUTE MONOCYTE [3]: 187.33 CELLS/uL
ABSOLUTE SEGMENTED NEUTROPHIL [3]: 2209.67 CELLS/uL
BASOPHIL [3]: 0%
EOSINOPHIL [3]: 1.67%
ERYTHROCYTE COUNT [3]: 5.95 x10E6/uL
HEMATOCRIT [3]: 39.17%
HEMOGLOBIN [3]: 15.1 G/DL
LEUKOCYTE COUNT [3]: 6.03 x10E3/uL
LYMPHOCYTE [3]: 58%
MEAN CORPUSCULAR HEMOGLOBIN [3]: 25.67 pg
MEAN CORPUSCULAR HEMOGLOBIN CONCENTRATION [3]: 38.63 G/DL
MEAN CORPUSCULAR VOLUME [3]: 66.27 fL
MONOCYTE [3]: 3%
NEUTROPHIL [3]: 37.33%
NUCLEATED RED BLOOD CELLS [3]: 0 /100WBC
PLATELET COUNT [3]: 1032.33 x10E3/uL
ALANINE AMINOTRANSFERASE [3]: 59.33 u/L
ALBUMIN [3]: 4.63 G/DL
ALKALINE PHOSPHATASE [3]: 452.67 u/L
ASPARTATE AMINOTRANSFERASE [3]: 96 u/L
BLOOD UREA NITROGEN [3]: 19.33 mg/dL
CARBON DIOXIDE [3]: 20.67 mmol/L
CHLORIDE [3]: 101.33 MEQ/L
CHOLESTEROL [3]: 45.67 mg/dL
CREATINE PHOSPHOKINASE [3]: 639.33 u/L
CREATININE [3]: 0.14 mg/dL
GLUCOSE [3]: 174 mg/dL
LACTATE DEHYDROGENASE [3]: 123 u/L
LIPASE [3]: 24.67 u/L
PHOSPHORUS [3]: 11.63 mg/dL
POTASSIUM [3]: 6.15 MEQ/L
SODIUM [3]: 142.57 MEQ/L
TOTAL BILIRUBIN [3]: 0.23 mg/dL
TOTAL PROTEIN [3]: 6.43 G/DL
URIC ACID [3]: 1.47 mg/dL
ABSOLUTE BASOPHIL [4]: 0 CELLS/uL
ABSOLUTE EOSINOPHIL [4]: 0 CELLS/uL
ABSOLUTE LYMPHOCYTE [4]: 10059.67 CELLS/uL
ABSOLUTE MONOCYTE [4]: 397 CELLS/uL
ABSOLUTE SEGMENTED NEUTROPHIL [4]: 1576.67 CELLS/uL
BASOPHIL [4]: 0%
EOSINOPHIL [4]: 0%
ERYTHROCYTE COUNT [4]: 6.01 x10E6/uL
HEMATOCRIT [4]: 38.4%
HEMOGLOBIN [4]: 14.77 G/DL
LEUKOCYTE COUNT [4]: 12.03 x10E3/uL
LYMPHOCYTE [4]: 83.33%
MEAN CORPUSCULAR HEMOGLOBIN [4]: 24.57 pg
MEAN CORPUSCULAR HEMOGLOBIN CONCENTRATION [4]: 38.5 G/DL
MEAN CORPUSCULAR VOLUME [4]: 63.9 fL
MONOCYTE [4]: 3.33%
NEUTROPHIL [4]: 13.33%
NUCLEATED RED BLOOD CELLS [4]: 0.33 /100WBC
PLATELET COUNT [4]: 1300 x10E3/uL
ALANINE AMINOTRANSFERASE [4]: 78.67 u/L
ALBUMIN [4]: 4.23 G/DL
ALKALINE PHOSPHATASE [4]: 452.67 u/L
ASPARTATE AMINOTRANSFERASE [4]: 86.67 u/L
BLOOD UREA NITROGEN [4]: 10.67 mg/dL
CARBON DIOXIDE [4]: 27 mmol/L
CHLORIDE [4]: 100.67 MEQ/L
CHOLESTEROL [4]: 56 mg/dL
CREATINE PHOSPHOKINASE [4]: 230.33 u/L
CREATININE [4]: 0.11 mg/dL
GLUCOSE [4]: 169.67 mg/dL
LACTATE DEHYDROGENASE [4]: 181.33 u/L
LIPASE [4]: 6.67 u/L
PHOSPHORUS [4]: 11.83 mg/dL
POTASSIUM [4]: 5.55 MEQ/L
SODIUM [4]: 141.67 MEQ/L
TOTAL BILIRUBIN [4]: 0.2 mg/dL
TOTAL PROTEIN [4]: 6.23 G/DL
URIC ACID [4]: 1.3 mg/dL
